# How the values were obtained:
# B16-F1 cells = assay: Effect of Pter on B16-F1 cell growth or viability in vitro; format: cell-based, murine; conditions: 15 μM Pter×60 min every 24 h
# Procedure: FIG. 14. In vivo effect of Pter on tumor growth (A) and on corticosterone (B) and ACTH (C) levels in plasma of murine B16-F1 melanoma-bearing mice. Pter (30 mg/kg) was administered i.v. every 24 h for a period of 15 days, starting 3 days after tumor inoculation.
# Human A2058, MeWo and MelJuso melanoma cells, and mouse AtT-20 pituitary corticotroph tumor cells were from the American Type Culture Collection (ATCC). Human HEMa-LP epidermal melanocytes were from Life Technologies (Grand Island, N.Y.). Human MDA-MB-231 (triple negative: ER−, PR−, HER2−) and MCF-7 (ER+, PR+, HER2−) breast adenocarcinoma, A549 lung adenocarcinoma (NSCLC), HepG2 hepatocellular carcinoma, LNCaP (AR+) and PC-3 (AR−) prostate adenocarcinoma, SK-OV-3 epithelial ovarian carcinoma, and HT-29 and Caco-2 colorectal carcinoma cells were from the American Type Culture Collection. Cells were grown in Dulbecco's modified Eagle's medium (DMEM) (Invitrogen, San Diego, Calif.), pH 7.4, supplemented with 10% heat-inactivated FCS (Biochrom KG, Berlin, Germany), 100 units/ml penicillin and 100 μg/ml streptomycin. […] Cell numbers were determined using a Coulter Counter (Coulter Electronic Inc., Miami, Fla.). […] Cellular viability was assessed as previously reported (Mena, S. et al. Clin Cancer Res 13, 2658-2666 (2007)), by measuring trypan blue exclusion and leakage of lactate dehydrogenase activity.
# human breast cancer = conditions: 20 μM Pter, 24 h, in vitro; cited from earlier work
# [1] = system: glucocorticoid receptors (GR); assay: GR content of human cancer cells by [3H]-labeled ligand whole-cell binding assay
# human melanoma cells = assay: Effect of pterostilbene on melanoma cell growth and viability in vitro; format: cell-based
# corticosterone = assay: Plasma corticosterone levels (ELISA) in tumor-bearing mice; format: in vivo
# Description: Measurement of ACTH, Corticosterone, and NORA Levels.
# Plasma levels of ACTH (Calbiotech, Inc., Spring Valley, Calif.), corticosterone (Kamiyama Biomedical Co., Seattle, Wash.), and NORA (IBL, Hamburg, Germany) were quantified by ELISA according to the instructions of the suppliers.
# [2] = system: HepG2 cells isolated from tumor-bearing mice; assay: Chemosensitization of cultured HepG2 cells isolated from xenografts; format: cell-based, human; conditions: 72 h-cultured, PL 0.2 μM, Chemo 0.15 μM DXR, Pter = in vivo pretreatment
# Procedure: FIGS. 18-25. Effect of piperlongumine and I-BET762, as GSH depleting and chemosensitizing agents, in in vitro growing human melanoma, pancreatic, breast, lung, liver, prostate, ovarian, and colorectal cancer cells. Cancer cells, isolated from Pter-treated tumor-bearing mice, were cultured as indicated under Methods. Chemotherapy (0.25 μM PAC.PBP in A2058 melanoma and MDA-MB-231 breast carcinoma cells; 0.125 μM PAC.PBP and 25 μM GTB in AsPC-1 pancreatic cancer cells; 1 μM VRB and 15 μM cisPt in A459 lung carcinoma cells; 0.15 μM DXR in HepG2 hepatocellular carcinoma cells; 15 nM DCT in PC-3 prostate carcinoma cells; 0.15 μM PAC.PBP and 25 μM CarboPt in SK-OV-3 ovarian carcinoma cells; 3 μM 5-FU, 1 μM FA and 0.6 μM IRI in HT-29 colorectal carcinoma cells) was added to the cultured flasks 24 h after seeding. […]
# Human A2058, MeWo and MelJuso melanoma cells, and mouse AtT-20 pituitary corticotroph tumor cells were from the American Type Culture Collection (ATCC). […] Cell numbers were determined using a Coulter Counter (Coulter Electronic Inc., Miami, Fla.). […] Cellular viability was assessed as previously reported (Mena, S. et al. Clin Cancer Res 13, 2658-2666 (2007)), by measuring trypan blue exclusion and leakage of lactate dehydrogenase activity. […]
# HT-29 human colon cancer = conditions: 20 μM Pter, 24 h, in vitro; cited from earlier work
compound,measurement,setting,value
"COc1cc(/C=C/c2ccc(O)cc2)cc(OC)c1 [Pter, trans-3,5-dimethoxy-4′-hydroxystilbene]",cell growth or viability in vitro,B16-F1 cells,did not affect
same,decrease in tumor cell viability,human breast cancer,~25%
same,GR number,"[1]; A549, day 35",41 ± 10 10^3 GR/cell
same,GR number (binding sites/cell),"[1]; A2058-RFP tumors, day 35",71 ± 5 10^3 GR/cell
same,GR number (binding sites/cell),"[1]; AsPC-1-RFP tumors, day 28",63 ± 10 10^3 GR/cell
same,GR number (binding sites/cell),"[1]; BxPC-3-RFP tumors, day 35",115 ± 27 10^3 GR/cell
same,GR number,"[1]; Caco-2, day 28",7 ± 2 10^3 GR/cell
same,GR number,"[1]; HT-29, day 21",14 ± 3 10^3 GR/cell
same,GR number,"[1]; HepG2, day 35",45 ± 11 10^3 GR/cell
same,GR number,"[1]; LNCaP, day 49",3 ± 1 10^3 GR/cell
same,GR number,"[1]; MCF-7, day 28",<1 10^3 GR/cell
same,GR number,"[1]; MDA-MB-231, day 35",18 ± 3 10^3 GR/cell
same,GR number (binding sites/cell),"[1]; MeWo-RFP tumors, day 35",45 ± 6 10^3 GR/cell
same,GR number (binding sites/cell),"[1]; MelJuso-RFP tumors, day 35",47 ± 4 10^3 GR/cell
same,GR number,"[1]; PC-3, day 21",21 ± 6 10^3 GR/cell
same,GR number,"[1]; SK-OV-3, day 49",25 ± 7 10^3 GR/cell
same,pterostilbene levels in culture medium during incubation,"human melanoma cells; human melanoma cells, 60 min incubation",remained unchanged
same,melanoma cell proliferation and viability in vitro,"human melanoma cells; pterostilbene 15 μM, 60 min each 24 h",nor tumor cell proliferation neither viability were significantly affected
same,CRC,"corticosterone; A549-bearing mice, day 35, 12 h circadian time",61 ± 17 ng/mL plasma
same,CRC,"corticosterone; A2058-bearing mice, day 35, 12 h circadian time",123 ± 29 ng/mL plasma
same,CRC,"corticosterone; AsPC-1-bearing mice, day 28, 12 h circadian time",217 ± 33 ng/mL plasma
same,CRC,"corticosterone; B16-F1-bearing mice, day 15, 12 h circadian time",187 ± 36 ng/mL plasma
same,CRC,"corticosterone; BxPC-3-bearing mice, day 35, 12 h circadian time",88 ± 21 ng/mL plasma
same,CRC,"corticosterone; Caco-2-bearing mice, day 28, 12 h circadian time",106 ± 23 ng/mL plasma
same,CRC,"corticosterone; HT-29-bearing mice, day 21, 12 h circadian time",126 ± 36 ng/mL plasma
same,CRC,"corticosterone; HepG2-bearing mice, day 35, 12 h circadian time",187 ± 50 ng/mL plasma
same,CRC,"corticosterone; LNCaP-bearing mice, day 49, 12 h circadian time",77 ± 15 ng/mL plasma
same,CRC,"corticosterone; MCF-7-bearing mice, day 28, 12 h circadian time",75 ± 20 ng/mL plasma
same,CRC,"corticosterone; MDA-MB-231-bearing mice, day 35, 12 h circadian time",84 ± 24 ng/mL plasma
same,CRC,"corticosterone; MeWo-bearing mice, day 35, 12 h circadian time",87 ± 17 ng/mL plasma
same,CRC,"corticosterone; MelJuso-bearing mice, day 35, 12 h circadian time",80 ± 15 ng/mL plasma
same,CRC,"corticosterone; PC-3-bearing mice, day 21, 12 h circadian time",145 ± 30 ng/mL plasma
same,CRC,"corticosterone; SK-OV-3-bearing mice, day 49, 12 h circadian time",64 ± 18 ng/mL plasma
same,corticosterone in plasma,"corticosterone; melanoma-bearing mice, pterostilbene 30 mg/kg every 48 h (FIG. 2A)",to practically control values
same,Viable cells,[2],1580 ± 318 ×10^6
same,decrease in tumor cell viability,HT-29 human colon cancer,~10%
